In PMC5691768, “Comparison of the Micellar Incorporation and the Intestinal Cell Uptake of Cholecalciferol, 25-Hydroxycholecalciferol and 1-α-Hydroxycholecalciferol” (Nutrients, 2017):

Columns and labels:
[1] = target: T1, human ASBT (Homo sapiens, UniProt Q12908); experiment: Uptake by Griptite cells overexpressing ASBT; assay type: in vitro ADME; details: Griptite cells transfected with human ASBT vs empty plasmid, 37 °C, 1 h
T1 construct: host or cells: Griptite cells (HEK-293-derived, own knowledge)
T1 sequence (Q12908 1-348): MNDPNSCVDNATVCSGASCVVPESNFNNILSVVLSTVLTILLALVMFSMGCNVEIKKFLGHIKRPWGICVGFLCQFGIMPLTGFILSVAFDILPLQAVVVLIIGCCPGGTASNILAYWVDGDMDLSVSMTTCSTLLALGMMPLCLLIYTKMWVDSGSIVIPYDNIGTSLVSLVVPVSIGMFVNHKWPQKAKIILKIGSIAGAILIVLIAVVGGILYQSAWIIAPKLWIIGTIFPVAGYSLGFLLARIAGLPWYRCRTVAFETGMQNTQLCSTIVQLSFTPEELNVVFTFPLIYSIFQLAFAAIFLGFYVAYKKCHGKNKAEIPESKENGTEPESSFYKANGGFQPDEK
Protocol: Griptite cells were cultured and transfected with 3 µg DNA (either ASBT in pCMV plasmid or empty pCMV control plasmid) similarly to HEK cells, as previously described. Transfection efficiency was verified by western blotting, as previously published. A pre-incubation of the cell monolayers with DMEM supplemented with either DMSO (control) or 100 µM simvastatin was performed during 30 min. Synthetic mixed micelles containing vitamin D forms were diluted in DMEM (1:5) to avoid cytotoxicity [23](data not shown). Apical uptake of vitamin D forms was determined after a 1 h-incubation with a solution of micellar vitamin D containing either DMSO or 100 µM simvastatin (final concentration of DMSO in both conditions: 0.01%). The % of vitamin D taken up was estimated as the quantity of vitamin D present in the harvested cells divided by the sum of the quantity of vitamin D remaining in the apical chamber and that present in the harvested cells.

[2] = set-up: method as in PubChem Website; details: ref PubChem Website; cited from earlier work
[3] = Incorporation of vitamin D forms in synthetic mixed micelles; assay type: physicochemical; details: for incorporation efficiency into synthetic mixed micelles: vitamin D form 0–20 µM, linear incorporation curves, n = 3
Protocol: Mixed micelles were formed as previously described. Briefly, monoolein (0.3 mM), oleic acid (0.5 mM), phosphatidylcholine (0.04 mM), lysophosphatidylcholine (0.16 mM), and cholesterol (0.1 mM) dissolved in trichloromethane/methanol (2:1, v/v) and vitamin D forms (concentration range: 0–20 µM) dissolved in ethanol were transferred to a glass tube, and the solvent mixture was carefully evaporated under nitrogen. The dried residue was dispersed in DMEM containing 5 mM sodium taurocholate and was incubated at 37 °C for 30 min. The solution was mixed by sonication in a bath sonicator (Branson 3510 MT, 40 kHz; Branson Ultrasonics, Danbury, CT, USA) for 30 min and then incubated at 37 °C for 1 h. It was then filtrated through cellulose ester membranes (0.22 µm) (Millipore S.A.S., Molsheim, France), and the resulting solution of vitamin D-rich mixed micelles was stored at −20 °C until cell culture experiment or vitamin extraction and HPLC analysis. Concentrations of the different forms in the micellar solutions were checked before each experiment.
(§1) Vitamin D forms were extracted from 500 µL aqueous samples using the method previously described. The internal standard was retinyl acetate for D3 and ergocalciferol for both 25(OH)D3 and 1α(OH)D3. After lipid extraction with hexane, dried residues were dissolved in 200 µL of mobile phase (acetonitrile/methanol/water, 60/38/2, v/v/v). A volume of 160 µL was used for HPLC analysis.
(§2) The HPLC system and method were set up according to previous studies. All molecules were identified by retention time compared with pure standards.

[4] = system: ASBT; experiment: Uptake by Caco-2 cells with ASBT inhibition by simvastatin; assay type: in vitro ADME, human; details: 100 µM simvastatin (ASBT inhibitor), n = 3
Protocol: Caco-2 clone TC-7 cells were cultured as previously described. For each experiment, cells were seeded and grown on Millicell® hanging cell culture inserts (Millipore S.A.S., Molsheim, France) for 21 days to obtain confluent and highly differentiated cell monolayers. Twelve hours prior to each experiment, the medium in both the apical and basolateral chambers was replaced with serum-free complete medium. The apical uptake of vitamin D forms incorporated in mixed micelles was determined after a 1 h-incubation period in the presence or absence of inhibitors, as previously described. The % of vitamin D taken up was estimated as the quantity of vitamin D present in the harvested cells divided by the sum of the quantity of vitamin D remaining in the apical chamber and that present in the harvested cells. The efflux of vitamin D forms incorporated in mixed micelles was determined as previously described, with minor changes. Briefly, cells first received the vitamin D-rich micelles at the apical side for 4 h. They were then washed once with PBS and equilibrated in serum-free complete medium for 15 min. […] The % of vitamin D effluxed back to the apical side was estimated as the quantity of vitamin D present in the apical chamber divided by the quantity of vitamin D present in the harvested cells at t0.

[5] = target: T2, SR-BI (Homo sapiens, UniProt Q8WTV0); experiment: Uptake by Caco-2 cells with SR-BI inhibition by BLT1; assay type: in vitro ADME; details: 10 µM BLT1 (SR-BI inhibitor), n = 3
T2 construct: endogenous in cells; host or cells: Caco-2 clone TC-7
T2 sequence (Q8WTV0 1-509 isoform Q8WTV0-2): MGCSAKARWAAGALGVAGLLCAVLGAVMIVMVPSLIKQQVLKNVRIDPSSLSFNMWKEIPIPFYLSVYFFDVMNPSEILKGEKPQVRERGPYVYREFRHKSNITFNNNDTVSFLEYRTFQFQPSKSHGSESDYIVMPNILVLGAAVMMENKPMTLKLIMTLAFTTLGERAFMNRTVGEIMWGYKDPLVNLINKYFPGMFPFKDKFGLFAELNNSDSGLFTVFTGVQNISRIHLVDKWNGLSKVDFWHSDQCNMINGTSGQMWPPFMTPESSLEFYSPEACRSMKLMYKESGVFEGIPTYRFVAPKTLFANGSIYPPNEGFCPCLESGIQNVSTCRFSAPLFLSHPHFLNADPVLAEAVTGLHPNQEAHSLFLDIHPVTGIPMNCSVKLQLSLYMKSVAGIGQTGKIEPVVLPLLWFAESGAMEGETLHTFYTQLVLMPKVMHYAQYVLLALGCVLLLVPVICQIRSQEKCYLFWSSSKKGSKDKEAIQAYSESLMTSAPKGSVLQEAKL
Protocol: (§3) Caco-2 clone TC-7 cells were cultured as previously described. For each experiment, cells were seeded and grown on Millicell® hanging cell culture inserts (Millipore S.A.S., Molsheim, France) for 21 days to obtain confluent and highly differentiated cell monolayers. Twelve hours prior to each experiment, the medium in both the apical and basolateral chambers was replaced with serum-free complete medium. The apical uptake of vitamin D forms incorporated in mixed micelles was determined after a 1 h-incubation period in the presence or absence of inhibitors, as previously described. The % of vitamin D taken up was estimated as the quantity of vitamin D present in the harvested cells divided by the sum of the quantity of vitamin D remaining in the apical chamber and that present in the harvested cells. The efflux of vitamin D forms incorporated in mixed micelles was determined as previously described, with minor changes. Briefly, cells first received the vitamin D-rich micelles at the apical side for 4 h. They were then washed once with PBS and equilibrated in serum-free complete medium for 15 min. Cells were either harvested (control) or they received apical medium containing vitamin D-free mixed micelles for 1 h. The % of vitamin D effluxed back to the apical side was estimated as the quantity of vitamin D present in the apical chamber divided by the quantity of vitamin D present in the harvested cells at t0.

[6] = system: Caco-2 clone TC-7 cells; experiment: Apical uptake of micellar vitamin D forms by Caco-2 cell monolayers; assay type: in vitro ADME, human; details: 1 h incubation, mixed micelles; for uptake rate by Caco-2 cells at high concentration: >5 µM apical, n = 6; for uptake rate by Caco-2 cells at low concentration: <1 µM apical, n = 3
Protocol: as §3, §1, §2

[7] = target: T3, NPC1L1 (Homo sapiens, UniProt Q9UHC9); experiment: Uptake by Caco-2 cells with NPC1L1 inhibition by ezetimibe glucuronide; assay type: in vitro ADME; details: 10 µM ezetimibe glucuronide (NPC1L1 inhibitor), n = 3
T3 construct: endogenous in cells; host or cells: Caco-2 clone TC-7
T3 sequence (Q9UHC9 22-1359): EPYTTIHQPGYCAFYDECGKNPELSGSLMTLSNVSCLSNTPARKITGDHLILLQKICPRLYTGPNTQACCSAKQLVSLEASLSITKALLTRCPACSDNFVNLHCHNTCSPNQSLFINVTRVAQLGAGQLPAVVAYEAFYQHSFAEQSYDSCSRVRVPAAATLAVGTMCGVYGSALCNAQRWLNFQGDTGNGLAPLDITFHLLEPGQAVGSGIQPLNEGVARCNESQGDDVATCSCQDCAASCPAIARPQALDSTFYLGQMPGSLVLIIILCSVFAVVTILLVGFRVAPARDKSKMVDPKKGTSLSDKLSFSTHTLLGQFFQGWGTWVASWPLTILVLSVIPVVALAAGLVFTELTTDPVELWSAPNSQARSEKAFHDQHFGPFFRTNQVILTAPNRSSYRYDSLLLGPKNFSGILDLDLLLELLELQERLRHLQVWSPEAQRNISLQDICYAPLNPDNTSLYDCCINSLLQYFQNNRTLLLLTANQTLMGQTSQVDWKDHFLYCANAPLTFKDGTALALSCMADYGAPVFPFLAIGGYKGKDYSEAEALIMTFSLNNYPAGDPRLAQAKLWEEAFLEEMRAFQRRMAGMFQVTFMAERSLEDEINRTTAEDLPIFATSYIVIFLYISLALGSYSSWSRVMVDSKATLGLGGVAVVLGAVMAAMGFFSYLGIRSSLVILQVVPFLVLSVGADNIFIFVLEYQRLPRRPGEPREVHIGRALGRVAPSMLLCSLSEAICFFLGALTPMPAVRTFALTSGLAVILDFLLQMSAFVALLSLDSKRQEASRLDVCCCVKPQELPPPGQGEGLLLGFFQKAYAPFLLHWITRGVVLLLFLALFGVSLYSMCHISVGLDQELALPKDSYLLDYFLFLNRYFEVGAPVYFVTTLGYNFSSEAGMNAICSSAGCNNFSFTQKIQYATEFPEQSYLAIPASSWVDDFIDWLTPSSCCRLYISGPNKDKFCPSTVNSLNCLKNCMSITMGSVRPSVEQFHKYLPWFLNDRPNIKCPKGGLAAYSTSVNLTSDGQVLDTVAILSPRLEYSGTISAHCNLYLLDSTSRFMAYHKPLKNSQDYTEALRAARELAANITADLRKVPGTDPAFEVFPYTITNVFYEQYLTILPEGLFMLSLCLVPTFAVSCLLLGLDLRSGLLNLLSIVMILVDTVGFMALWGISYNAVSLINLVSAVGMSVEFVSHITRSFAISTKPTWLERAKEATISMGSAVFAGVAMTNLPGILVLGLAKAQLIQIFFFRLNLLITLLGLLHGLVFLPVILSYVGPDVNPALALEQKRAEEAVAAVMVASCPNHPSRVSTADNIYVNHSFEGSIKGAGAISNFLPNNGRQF
Protocol: as §3

incorporation efficiency into synthetic mixed micelles [3] [%]	fold improvement of solubilization into mixed micelles compared to 25-hydroxycholecalciferol ([3]; vs 25-hydroxycholecalciferol) [fold]	fold improvement of solubilization into mixed micelles compared to cholecalciferol ([3]; vs cholecalciferol) [fold]	decrease of uptake in the presence of BLT1 [5]	uptake rate by Caco-2 cells at high concentration [6] [%]	uptake rate by Caco-2 cells at low concentration [6] [%]	decrease of uptake in the presence of ezetimibe glucuronide [7]	Compound	effect of ASBT overexpression on uptake [1]	log P [2]	decrease of uptake in the presence of simvastatin [4]
62	2.9	1.6	not significantly modified	25	18	but not	C=C1/C(=C\C=C2/CCC[C@]3(C)[C@@H]([C@H](C)CCCC(C)C)CC[C@@H]23)C[C@@H](O)C[C@@H]1O [1α(OH)D3, 1-α-hydroxycholecalciferol]	changed neither	6.8	~15%
21			not significantly modified	34	29	but not	C=C1CC[C@H](O)C/C1=C/C=C1\CCC[C@]2(C)[C@@H]([C@H](C)CCCC(C)(C)O)CC[C@@H]12 [25(OH)D3, 25-hydroxycholecalciferol]		6.2	

Compound	incorporation efficiency into synthetic mixed micelles [3] [%]	fold improvement of solubilization into mixed micelles compared to 25-hydroxycholecalciferol ([3]; vs 25-hydroxycholecalciferol) [fold]	fold improvement of solubilization into mixed micelles compared to cholecalciferol ([3]; vs cholecalciferol) [fold]	decrease of uptake in the presence of BLT1 [5]	uptake rate by Caco-2 cells at high concentration [6] [%]	uptake rate by Caco-2 cells at low concentration [6] [%]	decrease of uptake in the presence of ezetimibe glucuronide [7]	effect of ASBT overexpression on uptake [1]	log P [2]	decrease of uptake in the presence of simvastatin [4]
C=C1CC[C@H](O)C/C1=C/C=C1\CCC[C@]2(C)[C@@H]([C@H](C)CCCC(C)C)CC[C@@H]12 [D3, cholecalciferol]	39			31%	18	10	30%	changed neither	7.9	about 24%
